# Data published in patent publication US6737383B1, “Herbicidal oxadiazolidines” (priority 1999, dated 2004).
# Experiments:
# giant foxtail = test: Test B pre/postemergence giant foxtail; type: in vivo, Setaria faberii
# Method in brief: (§1)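 Herbicidal effect was estimated by eye on a ten-point control scale after plants spent twelve to sixteen days in a greenhouse following soil or foliar treatment. Foliar sprays targeted plants at one to four leaves; all doses were formulated in a non-phytotoxic solvent with surfactant.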
# velvetleaf = test: Test B pre/postemergence velvetleaf; type: in vivo, Abutilon theophrasti; conditions: for Plant response rating, Velvetleaf: scale of 0 to 10 where 0 is no effect and 10 is complete control
# Method in brief: as §1
# purple nutsedge = test: Test B pre/postemergence purple nutsedge; type: in vivo, Cyperus rotundus; conditions: for Plant response rating, Nutsedge: scale of 0 to 10 where 0 is no effect and 10 is complete control
# Method in brief: as §1
# pigweed = test: Test B pre/postemergence pigweed; type: in vivo, Amaranthus retroflexus; conditions: for Plant response rating, Redroot pigweed: scale of 0 to 10 where 0 is no effect and 10 is complete control
# Method in brief: as §1
# wild oat = test: Test B pre/postemergence wild oat; type: in vivo, Avena fatua; conditions: for Plant response rating, Wild oats: scale of 0 to 10 where 0 is no effect and 10 is complete control
# Method in brief: as §1
# crabgrass = test: Test B pre/postemergence crabgrass; type: in vivo, Digitaria sanguinalis
# Method in brief: as §1
# surinam grass = test: Test B pre/postemergence surinam grass; type: in vivo, Brachiaria decumbens
# Method in brief: as §1
# corn = test: Test B pre/postemergence corn; type: in vivo, Zea mays
# Method in brief: as §1
# sugar beet = test: Test B pre/postemergence sugar beet; type: in vivo, Beta vulgaris; conditions: for Plant response rating, Sugarbeets: scale of 0 to 10 where 0 is no effect and 10 is complete control
# Method in brief: as §1
# cocklebur = test: Test B pre/postemergence cocklebur; type: in vivo, Xanthium strumarium
# Method in brief: as §1
# smallflower flatsedge = test: Test B flood test smallflower flatsedge; type: in vivo, Cyperus difformis
# Method in brief: (§2)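 Plants were grown to the 2-leaf stage before treatment with test chemical, then held in a greenhouse for twelve to sixteen days. Injury was visually rated against untreated controls on a 0–10 scale, where 0 is no effect and 10 is complete control.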
# blackgrass = test: Test B pre/postemergence blackgrass; type: in vivo, Alopecurus myosuroides
# Method in brief: as §1
# rice = test: Test B flood test rice; type: in vivo, Oryza sativa
# Method in brief: as §2
# bamyardgrass = test: Test B flood test barnyardgrass; type: in vivo, Echinochloa crus-galli
# Method in brief: as §2
# bedstraw = test: Test B pre/postemergence bedstraw; type: in vivo, Galium aparine
# Method in brief: as §1
# soybean = test: Test B pre/postemergence soybean; type: in vivo, Glycine max; conditions: for Plant response rating, Soybean: scale of 0 to 10 where 0 is no effect and 10 is complete control
# Method in brief: as §1
# [1] = Postemergence, Rate 250 g/ha, scale 0 to 10
# [2] = Postemergence, Rate 500 g/ha, scale of 0 to 10 where 0 is no effect and 10 is complete control
# [3] = Preemergence, Rate 62 g/ha, scale of 0 to 10 where 0 is no effect and 10 is complete control
# [4] = Preemergence, Rate 125 g/ha, scale of 0 to 10 where 0 is no effect and 10 is complete control
# [5] = Preemergence, Rate 250 g/ha, scale 0 to 10, 0 is no effect, 10 is complete control
# [6] = Preemergence, Rate 500 g/ha, scale 0 to 10, 0 is no effect, 10 is complete control
# [7] = Rate 62 g/ha, Postemergence, scale 0 to 10 (0 no effect, 10 complete control)
# [8] = Rate 125 g/ha, Postemergence, scale 0 to 10, 0 is no effect, 10 is complete control
# [9] = Rate 62 g/ha, flood test species, Pre-emergence, visual evaluation after twelve to sixteen days
# [10] = Rate 125 g/ha, under heading Pre-emergence, flood test species, visual evaluation after twelve to sixteen days
# [11] = Rate 250 g/ha, Pre-emergence (flood test species), scale 0 to 10, 0 is no effect, 10 is complete control
# [12] = Rate 500 g/ha, Pre-emergence, flood test species, scale 0 to 10 (0 no effect, 10 complete control)
compound,measurement,setting,value
CC(C)N(C(=O)n1oc(=O)n(CC2=NOCC2)c1=O)c1ccc(F)cc1 [Compound 466],Giant foxtail plant response rating,giant foxtail; [1],9
same,Giant foxtail plant response rating,giant foxtail; [2],9
same,"Plant response rating, Giant foxtail",giant foxtail; [3],9
same,"Plant response rating, Giant foxtail",giant foxtail; [4],10
same,Giant foxtail plant response rating,giant foxtail; [5],10
same,Giant foxtail plant response rating,giant foxtail; [6],10
same,Giant foxtail plant response rating,giant foxtail; [7],9
same,Velvetleaf plant response rating,velvetleaf; [1],0
same,"Plant response rating, Velvetleaf","velvetleaf; Preemergence, Rate 62 g/ha",0
same,"Plant response rating, Velvetleaf","velvetleaf; Preemergence, Rate 125 g/ha",0
same,Velvetleaf plant response rating,velvetleaf; [5],4
same,Velvetleaf plant response rating,velvetleaf; [6],4
same,Velvetleaf plant response rating,velvetleaf; [7],0
same,Velvetleaf plant response rating,velvetleaf; [8],0
same,Nutsedge plant response rating,purple nutsedge; [1],0
same,"Plant response rating, Nutsedge","purple nutsedge; Preemergence, Rate 62 g/ha",0
same,"Plant response rating, Nutsedge","purple nutsedge; Preemergence, Rate 125 g/ha",0
same,Nutsedge plant response rating,purple nutsedge; [5],0
same,Nutsedge plant response rating,purple nutsedge; [7],0
same,Nutsedge plant response rating,purple nutsedge; [8],0
same,Redroot pigweed plant response rating,pigweed; [1],3
same,"Plant response rating, Redroot pigweed","pigweed; Preemergence, Rate 62 g/ha",1
same,"Plant response rating, Redroot pigweed","pigweed; Preemergence, Rate 125 g/ha",7
same,Redroot pigweed plant response rating,pigweed; [5],9
same,Redroot pigweed plant response rating,pigweed; [6],10
same,Redroot pigweed plant response rating,pigweed; [7],2
same,Redroot pigweed plant response rating,pigweed; [8],2
same,Wild oats plant response rating,wild oat; [1],0
same,"Plant response rating, Wild oats","wild oat; Preemergence, Rate 62 g/ha",0
same,"Plant response rating, Wild oats","wild oat; Preemergence, Rate 125 g/ha",0
same,Wild oats plant response rating,wild oat; [5],3
same,Wild oats plant response rating,wild oat; [6],7
same,Wild oats plant response rating,wild oat; [7],0
same,Wild oats plant response rating,wild oat; [8],0
same,Crabgrass plant response rating,crabgrass; [1],9
same,Crabgrass plant response rating,crabgrass; [2],9
same,"Plant response rating, Crabgrass",crabgrass; [3],6
same,"Plant response rating, Crabgrass",crabgrass; [4],9
same,Crabgrass plant response rating,crabgrass; [5],10
same,Crabgrass plant response rating,crabgrass; [6],10
same,Crabgrass plant response rating,crabgrass; [7],9
same,Crabgrass plant response rating,crabgrass; [8],9
same,B. signalgrass plant response rating,"surinam grass; Postemergence, Rate 250 g/ha, scale 0 to 10, 0 no effect, 10 complete control",3
same,B. signalgrass plant response rating,surinam grass; [2],7
same,"Plant response rating, B. signalgrass",surinam grass; [3],0
same,"Plant response rating, B. signalgrass",surinam grass; [4],3
same,B. signalgrass plant response rating,surinam grass; [5],6
same,B. signalgrass plant response rating,surinam grass; [6],9
same,B. signalgrass plant response rating,surinam grass; [7],2
same,B. signalgrass plant response rating,surinam grass; [8],2
same,Corn plant response rating,corn; [1],0
same,Corn plant response rating,corn; [2],2
same,"Plant response rating, Corn",corn; [3],0
same,"Plant response rating, Corn",corn; [4],0
same,Corn plant response rating,corn; [5],0
same,Corn plant response rating,corn; [6],4
same,Corn plant response rating,corn; [7],0
same,Corn plant response rating,corn; [8],0
same,Sugarbeets plant response rating,sugar beet; [1],0
same,"Plant response rating, Sugarbeets","sugar beet; Preemergence, Rate 62 g/ha",0
same,"Plant response rating, Sugarbeets","sugar beet; Preemergence, Rate 125 g/ha",0
same,Sugarbeets plant response rating,sugar beet; [5],2
same,Sugarbeets plant response rating,sugar beet; [6],4
same,Sugarbeets plant response rating,sugar beet; [7],0
same,Sugarbeets plant response rating,sugar beet; [8],0
same,Cocklebur plant response rating,cocklebur; [1],0
same,Cocklebur plant response rating,cocklebur; [2],1
same,"Plant response rating, Cocklebur",cocklebur; [3],0
same,"Plant response rating, Cocklebur",cocklebur; [4],0
same,Cocklebur plant response rating,cocklebur; [5],0
same,Cocklebur plant response rating,cocklebur; [6],0
same,Cocklebur plant response rating,cocklebur; [7],0
same,Cocklebur plant response rating,cocklebur; [8],0
same,"Plant response rating, S. Flatsedge (0 to 10 scale, 0 is no effect, 10 is complete control)",smallflower flatsedge; [9],0
same,"S. Flatsedge plant response rating (0 to 10 scale, 0 is no effect, 10 is complete control)",smallflower flatsedge; [10],0
same,S. Flatsedge plant response rating,smallflower flatsedge; [11],0
same,S. Flatsedge plant response rating,smallflower flatsedge; [12],0
same,Blackgrass plant response rating,blackgrass; [1],8
same,Blackgrass plant response rating,blackgrass; [2],9
same,"Plant response rating, Blackgrass",blackgrass; [3],2
same,"Plant response rating, Blackgrass",blackgrass; [4],5
same,Blackgrass plant response rating,blackgrass; [5],7
same,Blackgrass plant response rating,blackgrass; [6],8
same,Blackgrass plant response rating,blackgrass; [7],8
same,"Plant response rating, Rice (0 to 10 scale, 0 is no effect, 10 is complete control)",rice; [9],0
same,"Rice plant response rating (0 to 10 scale, 0 is no effect, 10 is complete control)",rice; [10],0
same,Rice plant response rating,rice; [11],0
same,Rice plant response rating,rice; [12],0
same,"Plant response rating, Barnyardgrass (0 to 10 scale, 0 is no effect, 10 is complete control)",bamyardgrass; [9],0
same,"Barnyardgrass plant response rating (0 to 10 scale, 0 is no effect, 10 is complete control)",bamyardgrass; [10],0
same,Barnyardgrass plant response rating,bamyardgrass; [11],0
same,Barnyardgrass plant response rating,bamyardgrass; [12],0
same,Bedstraw plant response rating,bedstraw; [1],4
same,"Plant response rating, Bedstraw",bedstraw; [4],2
same,Bedstraw plant response rating,bedstraw; [6],2
same,Bedstraw plant response rating,bedstraw; [7],4
same,Soybean plant response rating,soybean; [1],4
same,"Plant response rating, Soybean","soybean; Preemergence, Rate 62 g/ha",0
same,"Plant response rating, Soybean","soybean; Preemergence, Rate 125 g/ha",2
same,Soybean plant response rating,soybean; [5],2
same,Soybean plant response rating,soybean; [6],4
same,Soybean plant response rating,soybean; [7],4
same,Soybean plant response rating,soybean; [8],4
